According to ChEMBL document CHEMBL5303573, “Mapping human microbiome drug metabolism by gut bacteria and their genes” (Nature, 2019):

What was measured:
[1] = The drug is tested on Alistipes indistinctus strain: DSM22520 for biotransformation. The drug concentrations were measured before and after a 12-h incubation by liquid-chromatography-coupled mass spectrometry (LC–MS); conditions: 2 µM
[2] = parabacteroides distasonis, 12 h, 2 µM
Description: The drug is tested on Parabacteroides distasonis strain: ATCC8503 for biotransformation. The drug concentrations were measured before and after a 12-h incubation by liquid-chromatography-coupled mass spectrometry (LC–MS)

[3] = bacteroides thetaiotaomicron, 12 h, 2 µM
Description: The drug is tested on Bacteroides thetaiotaomicron strain: VPI-5482 for biotransformation. The drug concentrations were measured before and after a 12-h incubation by liquid-chromatography-coupled mass spectrometry (LC–MS)

[4] = anaerostipes sp., 12 h, 2 µM
Description: The drug is tested on Anaerostipes sp. strain: fecal isolate for biotransformation. The drug concentrations were measured before and after a 12-h incubation by liquid-chromatography-coupled mass spectrometry (LC–MS)

[5] = The drug is tested on Eubacterium rectale strain: ATCC33656 for biotransformation. The drug concentrations were measured before and after a 12-h incubation by liquid-chromatography-coupled mass spectrometry (LC–MS); conditions: agathobacter rectalis, 2 µM
[6] = The drug is tested on Bacteroides ovatus strain: ATCC8483 for biotransformation. The drug concentrations were measured before and after a 12-h incubation by liquid-chromatography-coupled mass spectrometry (LC–MS); conditions: 2 µM
[7] = The drug is tested on Clostridium asparagiforme strain: DSM15981 for biotransformation. The drug concentrations were measured before and after a 12-h incubation by liquid-chromatography-coupled mass spectrometry (LC–MS); assay type: ADME; design: dose 2 uM, timepoint 0 vs 12 hours; conditions: enterocloster asparagiformis, 2 µM
[8] = The drug is tested on Ruminococcus lactaris strain: ATCC29176 for biotransformation. The drug concentrations were measured before and after a 12-h incubation by liquid-chromatography-coupled mass spectrometry (LC–MS); conditions: 2 µM
[9] = The drug is tested on Eubacterium ventriosum strain: ATCC27560 for biotransformation. The drug concentrations were measured before and after a 12-h incubation by liquid-chromatography-coupled mass spectrometry (LC–MS); assay type: ADME; design: dose 2 uM, timepoint 0 vs 12 hours; conditions: 2 µM
[10] = parabacteroides johnsonii, 12 h, 2 µM
Description: The drug is tested on Parabacteroides johnsonii strain: DSM18315 for biotransformation. The drug concentrations were measured before and after a 12-h incubation by liquid-chromatography-coupled mass spectrometry (LC–MS)

[11] = segatella copri, 12 h, 2 µM
Description: The drug is tested on Prevotella copri strain: DSM18205 for biotransformation. The drug concentrations were measured before and after a 12-h incubation by liquid-chromatography-coupled mass spectrometry (LC–MS)

[12] = The drug is tested on Bacteroides pectinophilus strain: ATCC43243 for biotransformation. The drug concentrations were measured before and after a 12-h incubation by liquid-chromatography-coupled mass spectrometry (LC–MS); conditions: 2 µM
[13] = The drug is tested on Dorea formicigenerans strain: ATCC27755 for biotransformation. The drug concentrations were measured before and after a 12-h incubation by liquid-chromatography-coupled mass spectrometry (LC–MS); conditions: 2 µM
[14] = The drug is tested on Blautia luti strain: DSM14534 for biotransformation. The drug concentrations were measured before and after a 12-h incubation by liquid-chromatography-coupled mass spectrometry (LC–MS); assay type: ADME; design: dose 2 uM, timepoint 0 vs 12 hours; conditions: 2 µM
[15] = The drug is tested on Ruminococcus gnavus strain: ATCC29149 for biotransformation. The drug concentrations were measured before and after a 12-h incubation by liquid-chromatography-coupled mass spectrometry (LC–MS); conditions: mediterraneibacter gnavus, 2 µM
[16] = The drug is tested on Ruminococcus torques strain: ATCC27756 for biotransformation. The drug concentrations were measured before and after a 12-h incubation by liquid-chromatography-coupled mass spectrometry (LC–MS); assay type: ADME; design: dose 2 uM, timepoint 0 vs 12 hours; conditions: 2 µM
[17] = The drug is tested on Collinsella intestinalis strain: DSM13280 for biotransformation. The drug concentrations were measured before and after a 12-h incubation by liquid-chromatography-coupled mass spectrometry (LC–MS); conditions: 2 µM
[18] = The drug is tested on Bacteroides caccae strain: ATCC43185 for biotransformation. The drug concentrations were measured before and after a 12-h incubation by liquid-chromatography-coupled mass spectrometry (LC–MS); conditions: 2 µM
[19] = bacteroides fragilis, 12 h, 2 µM
Description: The drug is tested on Bacteroides fragilis strain: NCTC 9343 for biotransformation. The drug concentrations were measured before and after a 12-h incubation by liquid-chromatography-coupled mass spectrometry (LC–MS)

[20] = enterocloster bolteae, 12 h, 2 µM
Description: The drug is tested on Clostridium bolteae strain: ATCCBAA-613 for biotransformation. The drug concentrations were measured before and after a 12-h incubation by liquid-chromatography-coupled mass spectrometry (LC–MS)

[21] = The drug is tested on Collinsella aerofaciens strain: ATCC25986 for biotransformation. The drug concentrations were measured before and after a 12-h incubation by liquid-chromatography-coupled mass spectrometry (LC–MS); conditions: 2 µM
[22] = The drug is tested on Bacteroides fragilis strain: HMW610 for biotransformation. The drug concentrations were measured before and after a 12-h incubation by liquid-chromatography-coupled mass spectrometry (LC–MS); conditions: 2 µM
[23] = The drug is tested on Bacteroides finegoldii strain: DSM17565 for biotransformation. The drug concentrations were measured before and after a 12-h incubation by liquid-chromatography-coupled mass spectrometry (LC–MS); conditions: 2 µM
[24] = The drug is tested on Clostridium scindens strain: ATCC35704 for biotransformation. The drug concentrations were measured before and after a 12-h incubation by liquid-chromatography-coupled mass spectrometry (LC–MS); conditions: 2 µM
[25] = The drug is tested on Enterococcus faecalis strain: V583 for biotransformation. The drug concentrations were measured before and after a 12-h incubation by liquid-chromatography-coupled mass spectrometry (LC–MS); conditions: 2 µM
[26] = The drug is tested on Edwardsiella tarda strain: ATCC23685 for biotransformation. The drug concentrations were measured before and after a 12-h incubation by liquid-chromatography-coupled mass spectrometry (LC–MS); conditions: 2 µM
[27] = The drug is tested on Bifidobacterium breve strain: DSM20213 for biotransformation. The drug concentrations were measured before and after a 12-h incubation by liquid-chromatography-coupled mass spectrometry (LC–MS); conditions: 2 µM
[28] = The drug is tested on Bacteroides sp. WH2 strain: WH2 for biotransformation. The drug concentrations were measured before and after a 12-h incubation by liquid-chromatography-coupled mass spectrometry (LC–MS); conditions: bacteroides sp. wh2, 12 h, 2 µM
[29] = The drug is tested on Clostridium symbiosum strain: ATCC14940 for biotransformation. The drug concentrations were measured before and after a 12-h incubation by liquid-chromatography-coupled mass spectrometry (LC–MS); conditions: 2 µM
[30] = The drug is tested on Escherichia coli strain: BW25113 for biotransformation. The drug concentrations were measured before and after a 12-h incubation by liquid-chromatography-coupled mass spectrometry (LC–MS); conditions: 2 µM
[31] = The drug is tested on Anaerococcus hydrogenalis strain: DSM7454 for biotransformation. The drug concentrations were measured before and after a 12-h incubation by liquid-chromatography-coupled mass spectrometry (LC–MS); conditions: 2 µM
[32] = The drug is tested on Bacteroides cellulosilyticus strain: DSM14838 for biotransformation. The drug concentrations were measured before and after a 12-h incubation by liquid-chromatography-coupled mass spectrometry (LC–MS); conditions: 2 µM
[33] = bacteroides intestinalis, 12 h, 2 µM
Description: The drug is tested on Bacteroides intestinalis strain: DSM17393 for biotransformation. The drug concentrations were measured before and after a 12-h incubation by liquid-chromatography-coupled mass spectrometry (LC–MS)

[34] = The drug is tested on Subdoligranulum variabile strain: DSM15176 for biotransformation. The drug concentrations were measured before and after a 12-h incubation by liquid-chromatography-coupled mass spectrometry (LC–MS); conditions: 2 µM
[35] = The drug is tested on Providencia rettgeri strain: DSM1131 for biotransformation. The drug concentrations were measured before and after a 12-h incubation by liquid-chromatography-coupled mass spectrometry (LC–MS); assay type: ADME; design: dose 2 uM, timepoint 0 vs 12 hours; conditions: 2 µM
[36] = The drug is tested on Bacteroides fragilis strain: ATCC43859 for biotransformation. The drug concentrations were measured before and after a 12-h incubation by liquid-chromatography-coupled mass spectrometry (LC–MS); conditions: 2 µM
[37] = roseburia intestinalis, 12 h, 2 µM
Description: The drug is tested on Roseburia intestinalis strain: L1-82 for biotransformation. The drug concentrations were measured before and after a 12-h incubation by liquid-chromatography-coupled mass spectrometry (LC–MS)

[38] = The drug is tested on Parabacteroides merdae strain: ATCC43184 for biotransformation. The drug concentrations were measured before and after a 12-h incubation by liquid-chromatography-coupled mass spectrometry (LC–MS); conditions: 2 µM
[39] = The drug is tested on Bacteroides xylanisolvens strain: DSM18836 for biotransformation. The drug concentrations were measured before and after a 12-h incubation by liquid-chromatography-coupled mass spectrometry (LC–MS); conditions: 2 µM
[40] = The drug is tested on Clostridium sporogenes strain: ATCC15579 for biotransformation. The drug concentrations were measured before and after a 12-h incubation by liquid-chromatography-coupled mass spectrometry (LC–MS); conditions: 2 µM

Cc1ccc(-c2cc(C(F)(F)F)nn2-c2ccc(S(N)(=O)=O)cc2)cc1 [CELECOXIB]
Bacterial Biotransformation [1]: Compound NOT metabolized
Bacterial Biotransformation [2]: Compound NOT metabolized
Bacterial Biotransformation [3]: Compound NOT metabolized
Bacterial Biotransformation [4]: Compound NOT metabolized
Bacterial Biotransformation [5]: Compound NOT metabolized
Bacterial Biotransformation [6]: Compound NOT metabolized
Bacterial Biotransformation [7]: Compound NOT metabolized
Bacterial Biotransformation [8]: Compound NOT metabolized
Bacterial Biotransformation [9]: Compound NOT metabolized
Bacterial Biotransformation [10]: Compound NOT metabolized
Bacterial Biotransformation [11]: Compound metabolized
Bacterial Biotransformation [12]: Compound NOT metabolized
Bacterial Biotransformation [13]: Compound NOT metabolized
Bacterial Biotransformation [14]: Compound NOT metabolized
Bacterial Biotransformation [15]: Compound NOT metabolized
Bacterial Biotransformation [16]: Compound NOT metabolized
Bacterial Biotransformation [17]: Compound NOT metabolized
Bacterial Biotransformation [18]: Compound NOT metabolized
Bacterial Biotransformation [19]: Compound NOT metabolized
Bacterial Biotransformation [20]: Compound NOT metabolized
Bacterial Biotransformation [21]: Compound NOT metabolized
Bacterial Biotransformation [22]: Compound NOT metabolized
Bacterial Biotransformation [23]: Compound NOT metabolized
Bacterial Biotransformation [24]: Compound NOT metabolized
Bacterial Biotransformation [25]: Compound NOT metabolized
Bacterial Biotransformation [26]: Compound NOT metabolized
Bacterial Biotransformation [27]: Compound NOT metabolized
Bacterial Biotransformation [28]: Compound NOT metabolized
Bacterial Biotransformation [29]: Compound NOT metabolized
Bacterial Biotransformation [30]: Compound NOT metabolized
Bacterial Biotransformation [31]: Compound NOT metabolized
Bacterial Biotransformation [32]: Compound NOT metabolized
Bacterial Biotransformation [33]: Compound NOT metabolized
Bacterial Biotransformation [34]: Compound NOT metabolized
Bacterial Biotransformation [35]: Compound NOT metabolized
Bacterial Biotransformation [36]: Compound NOT metabolized
Bacterial Biotransformation [37]: Compound NOT metabolized
Bacterial Biotransformation [38]: Compound NOT metabolized
Bacterial Biotransformation [39]: Compound NOT metabolized
Bacterial Biotransformation [40]: Compound metabolized
